Results reported in patent publication US6579689B2, “Modulation of γ-secretase activity” (Scios Inc., priority 2000, dated 2003).

Tested on: γ-secretase
Test: Cell-free 0.5% CHAPS solubilized γ-secretase activity, Aβ production (Aβ40 ELISA)
Type: biochemical, monkey
Conditions: for enhancement of γ-secretase activity by other phospholipids, compared with cardiolipin: concentration not given
Procedure: To produce membranes containing high levels of CT99, ˜10^9 CV-1 monkey fibroblast cells were infected with VV99 for 48 hours. After this period, the cells were harvested, washed with saline, and pelleted by low speed centrifugation at 1200 rpm for 10 minutes at 4° C. The cell pellet was resuspended in 25 mls 0.25 M sucrose, 10 mM Tris-HCl pH 7.5, 1 mM EDTA then homogenized with a Dounce homogenizer using a tight fitting pestle. The sample is centrifuged at 2300 rpm for 10 minutes at 4° C. This homogenization step was repeated.
The resulting pellets containing nuclei and large debris were discarded and the post-nuclear supernatants were combined. The supernatant fraction was centrifuged at 100,000×g for 30-60 minutes at 4° C. to collect membranes. The membranes were washed in buffer containing 0.2% saponin, 10 mM Tris-HCl pH 7.5, 1 mM EDTA to remove contaminating proteolytic activity, followed by centrifugation at 100,000×g for 30 minutes at 4° C. This step was repeated. Membranes at this stage can be used directly for assaying γ-secretase activity, or may be further treated to provide solubilized γ-secretase activity.
The saponin-washed membrane fraction was next solubilized with 0.5% CHAPS prepared in 10 mM Tris-HCl pH 7.5 with 5 mM EDTA. Aliquots of membranes containing γ-secretase activity were treated with detergent at 0° C. for 1 hour after which the treated samples were centrifuged at 100,000×g for 1 hour at 4° C. The resulting supernatants (soluble fractions) were assayed for Aβ production. 0.5% CHAPS was successful in solubilizing and preserving the γ-secretase activity.
To produce Aβ protein in vitro, an aliquot of the saponin-washed fraction or an aliquot of the 0.5% CHAPS treated soluble fraction was first adjusted to pH 7.0 by making a 1:10 dilution of the fraction with 1 M Tris-HCl pH 7.0 for a final concentration of 100mM Tris-HC1. The neutralized samples were incubated at 37° C. for various lengths of time, typically ranging from 0 (control) to 24 hours. After incubation, the samples were assayed for Aβ production as follows.
Wells of a 96-microtiter plate were coated overnight at 4° C. with 100 μl/well of a 4 μg/ml solution of purified monoclonal antibody 1702.1 diluted in phosphate buffered saline (PBS). The 1702.1 monoclonal antibody specifically recognizes the Aβ40 isoform. […] The plate is washed three times with PBS 0.05% Tween 20 and the amount of 1101.1 second antibody bound to the well is detected with HRP-conjugated Streptavidin (Zymed) using a tetramethylbenzidine substrate (Sigma). The resulting colormetric reaction is quantified by reading the plate at OD^450nm. The amount of Aβ40 present in the test sample is calculated from known amounts of synthetic Aβ40 peptide standard run in the ELISA. […]

Row | Compound | enhancement of γ-secretase activity (Aβ production) by added phospholipid (1 μM cardiolipin, FIG. 4) | enhancement of γ-secretase activity by other phospholipids, compared with cardiolipin
1 | cardiolipin | nearly equivalent to the activity originally present in the membranes prior to solubilization | 
2 | CCCCCCCCCCCCCCCC(=O)OC[C@H](COP(=O)([O-])OCC[N+](C)(C)C)OC(=O)CCCCCCCCCCCCCCC [1,2 dipalmitoyl-5-glycerol-3-phosphocholine] |  | comparable results
3 | phosphotidylserine |  | comparable results
4 | phosphotidylcholine |  | comparable results
